Test results published in PubChem BioAssay AID248 (DTP/NCI, 2004).
Inconclusive results and toxic doses are left out. No stated cut-off is given here; in the data, active means T/C of 150% or more; inactive means T/C below 125%.

System: L1210 leukemia ip in BDF1 mice, survival T/C
Experiment: NCI In Vivo Anticancer Drug Screen. Data for tumor model L1210 Leukemia (intraperitoneal) in B6D2F1 (BDF1) mice
Details: endpoint: mean survival time, higher = longer survival
Outline: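 Survival endpoint. Drug-treated group vs vehicle group, expressed as T divided by C. Tumor passaged by transplantation.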

[1] = dose: 100.0 mg/kg/injection, schedule: Q04DX003 (ip), vehicle: Klucel (hydroxypropylcellulose) (HPC)
[2] = dose: 200.0 mg/kg/injection, schedule: Q04DX003 (ip), vehicle: Klucel (hydroxypropylcellulose) (HPC)
[3] = dose: 400.0 mg/kg/injection, schedule: Q04DX003 (ip), vehicle: Klucel (hydroxypropylcellulose) (HPC)
[4] = dose: 100.0 mg/kg/injection, schedule: Q04DX003 (ip), vehicle: saline with Tween-80
[5] = dose: 100.0 mg/kg/injection, schedule: Q04DX002 (ip), vehicle: Klucel (hydroxypropylcellulose) (HPC)
[6] = dose: 200.0 mg/kg/injection, schedule: Q04DX002 (ip), vehicle: Klucel (hydroxypropylcellulose) (HPC)
[7] = dose: 400.0 mg/kg/injection, schedule: Q04DX002 (ip), vehicle: Klucel (hydroxypropylcellulose) (HPC)
[8] = dose: 100.0 mg/kg/injection, schedule: Q04DX003 (ip), vehicle: saline
[9] = dose: 200.0 mg/kg/injection, schedule: Q04DX003 (ip), vehicle: saline
[10] = dose: 400.0 mg/kg/injection, schedule: Q04DX003 (ip), vehicle: saline
[11] = dose: 100.0 mg/kg/injection, schedule: Q01DX009 (ip), vehicle: saline
[12] = dose: 200.0 mg/kg/injection, schedule: Q01DX009 (ip), vehicle: saline
[13] = dose: 400.0 mg/kg/injection, schedule: Q01DX009 (ip), vehicle: saline

Measured: T/C

CCCCCCCCC(O)CCCC (centres undefined)
inactive: dose: 100.0 mg/kg/injection, schedule: Q01DX009 (ip), vehicle: Klucel (hydroxypropylcellulose) (HPC) 93 % of control | [1] 97 % of control | dose: 200.0 mg/kg/injection, schedule: Q01DX009 (ip), vehicle: Klucel (hydroxypropylcellulose) (HPC) 98 % of control | [2] 105 % of control | dose: 400.0 mg/kg/injection, schedule: Q01DX009 (ip), vehicle: Klucel (hydroxypropylcellulose) (HPC) 95 % of control | [3] 100 % of control

Cc1ccc(S(=O)(=O)NN)cc1
inactive: [4] 97 % of control | dose: 200.0 mg/kg/injection, schedule: Q04DX003 (ip), vehicle: saline with Tween-80 101 % of control | dose: 400.0 mg/kg/injection, schedule: Q04DX003 (ip), vehicle: saline with Tween-80 88 % of control

Fc1c(F)c(F)c(Oc2c(F)c(F)c(P(c3c(F)c(F)c(Oc4c(F)c(F)c(F)c(F)c4F)c(F)c3F)c3c(F)c(F)c(Oc4c(F)c(F)c(F)c(F)c4F)c(F)c3F)c(F)c2F)c(F)c1F
inactive: dose: 75.0 mg/kg/injection, schedule: Q04DX003 (ip), vehicle: Klucel (hydroxypropylcellulose) (HPC) 104 % of control | dose: 150.0 mg/kg/injection, schedule: Q04DX003 (ip), vehicle: Klucel (hydroxypropylcellulose) (HPC) 91 % of control | dose: 300.0 mg/kg/injection, schedule: Q04DX003 (ip), vehicle: Klucel (hydroxypropylcellulose) (HPC) 90 % of control

CCC(=N)C1CCCCC1
inactive: dose: 75.0 mg/kg/injection, schedule: Q01DX001 (ip), vehicle: carboxymethylcellulose (CMC) 102 % of control | dose: 150.0 mg/kg/injection, schedule: Q01DX001 (ip), vehicle: carboxymethylcellulose (CMC) 93 % of control

C1=NC(c2ccccc2)=CN(C2CCCCCC2)C1(c1ccccc1)C1CCCCCC1 (centres undefined)
inactive: dose: 50.0 mg/kg/injection, schedule: Q04DX002 (ip), vehicle: saline 99 % of control | [5] 98 % of control | dose: 100.0 mg/kg/injection, schedule: Q04DX002 (ip), vehicle: saline 101 % of control | [6] 88 % of control | dose: 200.0 mg/kg/injection, schedule: Q04DX002 (ip), vehicle: saline 96 % of control | [7] 95 % of control

CN(C)C(C)(C)CC(C)(C)C
inactive: dose: 25.0 mg/kg/injection, schedule: Q04DX003 (ip), vehicle: saline with Tween-80 103 % of control | dose: 50.0 mg/kg/injection, schedule: Q04DX003 (ip), vehicle: saline with Tween-80 106 % of control | [4] 103 % of control

c1ccc(C2=Nc3ccccc3-c3ccccc3N2)cc1
inactive: dose: 100.0 mg/kg/injection, schedule: Q01DX001 (ip), vehicle: saline with Tween-80 100 % of control | dose: 200.0 mg/kg/injection, schedule: Q01DX001 (ip), vehicle: saline with Tween-80 103 % of control | dose: 400.0 mg/kg/injection, schedule: Q01DX001 (ip), vehicle: saline with Tween-80 106 % of control

CC(C)CCCC(C)C1CCC2C3CC=C4CC(OC(=O)CCCC5CCCCC5)CCC4(C)C3CCC12C (centres undefined)
inactive: [1] 94 % of control | [2] 94 % of control | [3] 94 % of control

COCP(=O)(OC)OC
inactive: [8] 116 % of control | [9] 94 % of control | [10] 100 % of control

COc1ncnc2c1ncn2C1OC(CF)C(O)C1O (centres undefined)
inactive: dose: 100.0 mg/kg/injection, schedule: Q01DX005 (ip), vehicle: saline 101 % of control | dose: 200.0 mg/kg/injection, schedule: Q01DX005 (ip), vehicle: saline 103 % of control

Nc1cc(Cl)ccc1Cl
inactive: dose: 100.0 mg/kg/injection, schedule: Q04DX002 (ip), vehicle: gum acacia 91 % of control | dose: 200.0 mg/kg/injection, schedule: Q04DX002 (ip), vehicle: gum acacia 95 % of control | dose: 400.0 mg/kg/injection, schedule: Q04DX002 (ip), vehicle: gum acacia 95 % of control

O=C(O)CNCc1ccc(F)cc1
inactive: [11] 107 % of control | [8] 109 % of control | [12] 108 % of control | [9] 105 % of control | [13] 107 % of control | [10] 102 % of control

CCC(C)C(CCCCN(C)C)(CNC(=O)CN(CC)CC)c1cccc2ccccc12 (centres undefined)
inactive: [11] 99 % of control

CC(=O)OCCc1cccc(C)c1
inactive: [5] 104 % of control | [6] 115 % of control | [7] 108 % of control

COC1OCC(O)C(O)C1OS(C)(=O)=O (centres undefined)
inactive: dose: 100.0 mg/kg/injection, schedule: Q01DX001 (ip), vehicle: saline 110 % of control | dose: 200.0 mg/kg/injection, schedule: Q01DX001 (ip), vehicle: saline 101 % of control | dose: 400.0 mg/kg/injection, schedule: Q01DX001 (ip), vehicle: saline 104 % of control

CCOC(=O)CCN1CCOCC1
inactive: [11] 100 % of control | [8] 111 % of control | [12] 101 % of control | [9] 101 % of control | [13] 111 % of control | [10] 101 % of control

CCOC(=O)CC(CC(=O)OCC)NC(=O)c1ccc(N(C)C=O)cc1
inactive: dose: 100.0 mg/kg/injection, schedule: Q01DX001 (ip), vehicle: other 100 % of control | dose: 200.0 mg/kg/injection, schedule: Q01DX001 (ip), vehicle: other 102 % of control | dose: 400.0 mg/kg/injection, schedule: Q01DX001 (ip), vehicle: other 97 % of control

O=NN(CC(Cl)CN(N=O)C(=O)NC1CCCCC1)C(=O)NC1CCCCC1
inactive: dose: 8.0 mg/kg/injection, schedule: Q01DX001 (ip), vehicle: other 97 % of control | dose: 16.0 mg/kg/injection, schedule: Q01DX001 (ip), vehicle: other 108 % of control | dose: 31.0 mg/kg/injection, schedule: Q01DX001 (ip), vehicle: other 90 % of control | dose: 62.0 mg/kg/injection, schedule: Q01DX001 (ip), vehicle: other 100 % of control | dose: 125.0 mg/kg/injection, schedule: Q01DX001 (ip), vehicle: other 95 % of control | dose: 250.0 mg/kg/injection, schedule: Q01DX001 (ip), vehicle: other 92 % of control | dose: 500.0 mg/kg/injection, schedule: Q01DX001 (ip), vehicle: other 97 % of control | dose: 750.0 mg/kg/injection, schedule: Q01DX001 (ip), vehicle: other 102 % of control | dose: 1000.0 mg/kg/injection, schedule: Q01DX001 (ip), vehicle: other 102 % of control

O=C1/C(=C/c2ccncc2)CCc2cc(Cl)ccc21
inactive: dose: 100.0 mg/kg/injection, schedule: Q04DX003 (ip), vehicle: carboxymethylcellulose (CMC) 107 % of control | dose: 200.0 mg/kg/injection, schedule: Q04DX003 (ip), vehicle: carboxymethylcellulose (CMC) 111 % of control | dose: 400.0 mg/kg/injection, schedule: Q04DX003 (ip), vehicle: carboxymethylcellulose (CMC) 96 % of control

CCSC(SCC)C(OC(=O)c1ccccc1)C(OC(=O)c1ccccc1)C(COC(=O)c1ccccc1)OC(=O)c1ccccc1 (centres undefined)
inactive: dose: 100.0 mg/kg/injection, schedule: Q01DX001 (ip), vehicle: carboxymethylcellulose (CMC) 102 % of control | dose: 200.0 mg/kg/injection, schedule: Q01DX001 (ip), vehicle: carboxymethylcellulose (CMC) 102 % of control | dose: 400.0 mg/kg/injection, schedule: Q01DX001 (ip), vehicle: carboxymethylcellulose (CMC) 96 % of control

CC(C)OP(=O)(OC=C(Cl)Cl)OC(C)C
inactive: dose: 75.0 mg/kg/injection, schedule: Q01DX001 (ip), vehicle: saline 93 % of control | dose: 150.0 mg/kg/injection, schedule: Q01DX001 (ip), vehicle: saline 91 % of control

CNC(=O)O/N=C/c1cccc(OC)c1
inactive: dose: 100.0 mg/kg/injection, schedule: Q01DX009 (ip), vehicle: saline with Tween-80 93 % of control | dose: 200.0 mg/kg/injection, schedule: Q01DX009 (ip), vehicle: saline with Tween-80 100 % of control | dose: 400.0 mg/kg/injection, schedule: Q01DX009 (ip), vehicle: saline with Tween-80 95 % of control
